Data from ChEMBL document CHEMBL1143409, “Efflux-related resistance to norfloxacin, dyes, and biocides in bloodstream isolates of Staphylococcus aureus” (2007).
≈ marks a conversion by molar mass, not a printed value.

Columns and labels:
Staphylococcus aureus [1] = assay: Antimicrobial activity against methicillin-resistant Staphylococcus aureus effluxing isolate; format: functional
Staphylococcus aureus [2] = assay: Inhibition of multidrug-resistant efflux pump in methicillin-resistant Staphylococcus aureus effluxing isolate assessed as fold reduction of chlorehexidin MIC at 10 ug/ml by microdilution method; format: functional
Staphylococcus aureus [3] = assay: Inhibition of multidrug-resistant efflux pump in methicillin-resistant Staphylococcus aureus effluxing isolate assessed as fold reduction of dequalinium MIC at 10 ug/ml by microdilution method; format: functional
Staphylococcus aureus [4] = assay: Inhibition of multidrug-resistant efflux pump in methicillin-resistant Staphylococcus aureus effluxing isolate assessed as fold reduction of acriflavine MIC at 10 ug/ml by microdilution method; format: functional
Staphylococcus aureus [5] = assay: Inhibition of multidrug-resistant efflux pump in methicillin-resistant Staphylococcus aureus effluxing isolate assessed as fold reduction of ethidium-bromide MIC at 10 ug/ml by microdilution method; format: functional
Staphylococcus aureus [6] = assay: Inhibition of multidrug-resistant efflux pump in methicillin-resistant Staphylococcus aureus effluxing isolate assessed as fold reduction of Norfloxacin MIC at 10 ug/ml by microdilution method; format: functional
Staphylococcus aureus [7] = assay: Inhibition of multidrug-resistant efflux pump in methicillin-resistant Staphylococcus aureus effluxing isolate assessed as fold reduction of tetraphenylphosphonium bromide MIC at 10 ug/ml by microdilution method; format: functional
Staphylococcus aureus [8] = assay: Inhibition of multidrug-resistant efflux pump in methicillin-resistant Staphylococcus aureus effluxing isolate assessed as fold reduction of citramide MIC at 10 ug/ml by microdilution method; format: functional, organism-based

N=C(NCCCCCCNC(=N)NC(=N)Nc1ccc(Cl)cc1)NC(=N)Nc1ccc(Cl)cc1 [CHLORHEXIDINE]
MIC50 (Staphylococcus aureus [1]): 0.31 µg/mL (≈ 0.613 µM)
MIC90 (Staphylococcus aureus [1]): 0.63 µg/mL (≈ 1.25 µM)
fold change (FC) (Staphylococcus aureus [2]): 8

Cc1cc(N)c2ccccc2[n+]1CCCCCCCCCC[n+]1c(C)cc(N)c2ccccc21.[Cl-].[Cl-] [DEQUALINIUM CHLORIDE]
MIC50 (Staphylococcus aureus [1]): 1.25 µg/mL
MIC90 (Staphylococcus aureus [1]): 5 µg/mL
fold change (FC) (Staphylococcus aureus [3]): 4

C[n+]1c2cc(N)ccc2cc2ccc(N)cc21.[Cl-] [EUFLAVINE]
MIC50 (Staphylococcus aureus [1]): 12.5 µg/mL
MIC90 (Staphylococcus aureus [1]): 50 µg/mL
fold change (FC) (Staphylococcus aureus [4]): 4

CC[n+]1c(-c2ccccc2)c2cc(N)ccc2c2ccc(N)cc21.[Br-] [HOMIDIUM BROMIDE]
MIC50 (Staphylococcus aureus [1]): 6.25 µg/mL
MIC90 (Staphylococcus aureus [1]): 25 µg/mL
fold change (FC) (Staphylococcus aureus [5]): 8

CCn1cc(C(=O)O)c(=O)c2cc(F)c(N3CCNCC3)cc21 [NORFLOXACIN]
MIC50 (Staphylococcus aureus [1]): 12.5 µg/mL (≈ 39.1 µM)
MIC90 (Staphylococcus aureus [1]): > 100 µg/mL
fold change (FC) (Staphylococcus aureus [6]): 4

[Br-].c1ccc([P+](c2ccccc2)(c2ccccc2)c2ccccc2)cc1 [TETRAPHENYLPHOSPHONIUM BROMIDE]
MIC50 (Staphylococcus aureus [1]): 25 µg/mL
MIC90 (Staphylococcus aureus [1]): 50 µg/mL
fold change (FC) (Staphylococcus aureus [7]): 4

CETRIMIDE
MIC50 (Staphylococcus aureus [1]): 0.63 µg/mL
MIC90 (Staphylococcus aureus [1]): 1.25 µg/mL
fold change (FC) (Staphylococcus aureus [8]): 4
